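Step 1: Grow cells in 96-well plates. Step 2: Expose to compound for 48 hours at 5 concentrations. Step 3: Interpolate endpoints linearly; if unreached, use highest concentration. Here, GI50 denotes the concentration required for 50% inhibition of growth. TGI denotes the concentration required for complete inhibition of growth.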
Columns and labels:
Test in all cases: NCI anticancer screen, dose series, 48 h
HCC-2998 colon = tested on: HCC-2998 colon
OVCAR-4 ovarian = tested on: OVCAR-4 ovarian
HCT-116 colon = tested on: HCT-116 colon
NCI/ADR-RES ovarian = tested on: NCI/ADR-RES ovarian
A549 NSCLC = tested on: A549 NSCLC
SNB-19 CNS = tested on: SNB-19 CNS
SNB-75 CNS = tested on: SNB-75 CNS
SW-620 colon = tested on: SW-620 colon
CAKI-1 renal = tested on: CAKI-1 renal
UACC-257 melanoma = tested on: UACC-257 melanoma

SMILES	GI50 (HCC-2998 colon)	TGI (HCC-2998 colon)	GI50 (OVCAR-4 ovarian)	TGI (OVCAR-4 ovarian)	GI50 (HCT-116 colon)	TGI (HCT-116 colon)	GI50 (NCI/ADR-RES ovarian)	TGI (NCI/ADR-RES ovarian)	GI50 (A549 NSCLC)	TGI (A549 NSCLC)	GI50 (SNB-19 CNS)	TGI (SNB-19 CNS)	GI50 (SNB-75 CNS)	TGI (SNB-75 CNS)	GI50 (SW-620 colon)	TGI (SW-620 colon)	TGI (CAKI-1 renal)	TGI (UACC-257 melanoma)	GI50 (CAKI-1 renal)	GI50 (UACC-257 melanoma)
Cc1c2ccncc2c(C)c2c1c1cc(CO)ccc1n2C	0.72 µM	3.42 µM	0.285 µM	1.82 µM	0.175 µM	1.66 µM	0.551 µM	7.5 µM	0.416 µM	2.81 µM	0.431 µM	4.24 µM	1.07 µM	2.7 µM	0.297 µM	10.9 µM				
COC(=O)/C(C#N)=C1\CCc2ccccc21		> 100 µM		> 100 µM						> 100 µM		> 100 µM		> 100 µM		> 100 µM	> 100 µM	> 100 µM		
Nc1ccc(C(=O)NN2C(=O)C(Cl)C2c2cccc(O)c2)cc1 (stereo not given)		29.8 µM		34 µM		25.8 µM				39.3 µM		30.5 µM		56.1 µM		36.6 µM	41.9 µM	41.7 µM		
COc1cc(/C=C\c2ccncc2)cc(OC)c1OC				> 100 µM		> 100 µM				> 100 µM		> 100 µM		> 100 µM		> 100 µM	> 100 µM	> 100 µM		
COc1ccc2c(c1)C(=O)c1c-2n(CCCN)c(=O)c2cc([N+](=O)[O-])ccc12					< 0.01 µM	0.0119 µM					< 0.01 µM	2.13 µM			< 0.01 µM	0.146 µM	< 0.01 µM	0.736 µM	< 0.01 µM	< 0.01 µM
COc1ccc(-c2ccc(/C=N/n3c(COc4ccccc4Cl)n[nH]c3=S)o2)c([N+](=O)[O-])c1			45.4 µM	> 100 µM	17.3 µM	33.8 µM	22.6 µM	57.1 µM	30.4 µM	87.9 µM	42.2 µM	> 100 µM	> 100 µM	> 100 µM			59.3 µM	63.5 µM	24.6 µM	28.4 µM
Cc1cc(C)nc(NS(=O)(=O)c2ccc(NC(=O)c3cccn4c(=O)c5ccccc5nc34)cc2)n1		> 100 µM		68.3 µM		> 100 µM				> 100 µM		> 100 µM		> 100 µM		> 100 µM				
CCN(CC)CCC(CNc1c(C)cnc2cc(Cl)ccc12)c1ccc(Cl)cc1 (stereo not given)			4.17 µM	21.1 µM			10.2 µM	23.5 µM	16 µM	32.2 µM	11.4 µM	26.8 µM	5.67 µM	21 µM	4.91 µM	19.6 µM	16.8 µM		3.51 µM	
CCC[CH2][Sn]([CH2]CCC)([O]C(=O)/C=C/c1ccccc1F)[O]C(=O)/C=C/c1ccccc1F	1.06 µM	2.29 µM	1.45 µM	2.9 µM	1.05 µM	2.52 µM			1.88 µM	3.91 µM	0.788 µM	2.07 µM	0.692 µM	2.06 µM	0.205 µM	0.479 µM	1.79 µM	1.76 µM	0.436 µM	0.465 µM
O=C(O)[C@@H](NS(=O)(=O)c1ccc2ccccc2c1)c1ccccc1		> 100 µM		> 100 µM								> 100 µM		> 100 µM			> 100 µM	> 100 µM		
COc1cc2c(c(OC)c1OC)-c1c(cc3c(c1OC)OCO3)CC(C)C(C)(O)C2OC(=O)c1ccccc1 (stereo not given)		> 100 µM		> 100 µM		> 100 µM				> 100 µM		> 100 µM		> 100 µM		> 100 µM	> 100 µM	> 100 µM		
COc1cc(C2CC(=O)Nc3c2cc(Br)c2ccccc32)cc(Br)c1OC (stereo not given)	4.53 µM	> 100 µM	0.349 µM	1.44 µM	0.602 µM	2.44 µM	0.398 µM	2.63 µM			2.69 µM	9.96 µM	0.998 µM	2.52 µM	0.53 µM	> 100 µM		> 100 µM		12.6 µM
Nc1cc2cccc[n+]2c2cccc(Cl)c12	11.4 µM	32.4 µM	17.1 µM	72.8 µM	36.9 µM				30.9 µM		12.7 µM	84.1 µM			34.2 µM			27.4 µM		11.3 µM
N.N.N.N.N.O=S(=O)([O-])C(F)(F)F.O=S(=O)([O-])C(F)(F)F.[Os+8]	7.02 µM	20.2 µM			5.37 µM	18 µM			24.2 µM	> 100 µM			11.1 µM	28.5 µM	8.48 µM	41.4 µM	30.6 µM	> 100 µM	6.61 µM	22.2 µM
COC/N=C(/N)NC#N		> 100 µM		> 100 µM		> 100 µM				> 100 µM		> 100 µM		> 100 µM		33.6 µM	> 100 µM	> 100 µM		
Nc1ccc(C(=O)N/C(=C\c2cccc([N+](=O)[O-])c2)c2nc3ccc(Cl)cc3[nH]2)cc1		> 100 µM		> 100 µM						> 100 µM		> 100 µM				> 100 µM	> 100 µM			
COc1ccc(Cc2nc3ccccc3s2)cc1OC		49 µM		37.7 µM		29.2 µM				61.8 µM		99.9 µM		36.8 µM		32.7 µM	31.3 µM	32.9 µM		
Cc1nc2c(sc(=S)n2-c2ccccc2)c2nc3ccccc3n12		> 100 µM		> 100 µM								> 100 µM		> 100 µM			> 100 µM	> 100 µM		
CC(=O)[CH-]C(=O)Nc1ccccc1.CC(=O)[CH-]C(=O)Nc1ccccc1.CC[O-].CC[O-].[Ti+4]	> 100 µM	> 100 µM	> 100 µM	> 100 µM	> 100 µM	> 100 µM			> 100 µM	> 100 µM	> 100 µM	> 100 µM	61.2 µM	> 100 µM	> 100 µM	> 100 µM	> 100 µM	> 100 µM	> 100 µM	> 100 µM

Source: PubChem BioAssay (NCI)
